Data on 37 compounds can be found in PubChem BioAssay AID2165 (The Scripps Research Institute Molecular Screening Center, 2009).

Calls of active or inactive are those of the source. Rule as the data show it: active = IC50 below about 9 µM; inactive = the rest.

The assay deals with Tyrosine-protein kinase JAK2 (Homo sapiens) (UniProt O60674). The experiment in a line: JAK2V617F project follow-up: kinase, reporter, cytotoxicity – HEL and Ba/F3 cells, late-stage follow-up (AID 2165). The note with it: JAK2V617F panel: kinase, IRF1 reporter.
Sequence of Tyrosine-protein kinase JAK2 (Homo sapiens) (O60674 whole entry, looked up, change not shown): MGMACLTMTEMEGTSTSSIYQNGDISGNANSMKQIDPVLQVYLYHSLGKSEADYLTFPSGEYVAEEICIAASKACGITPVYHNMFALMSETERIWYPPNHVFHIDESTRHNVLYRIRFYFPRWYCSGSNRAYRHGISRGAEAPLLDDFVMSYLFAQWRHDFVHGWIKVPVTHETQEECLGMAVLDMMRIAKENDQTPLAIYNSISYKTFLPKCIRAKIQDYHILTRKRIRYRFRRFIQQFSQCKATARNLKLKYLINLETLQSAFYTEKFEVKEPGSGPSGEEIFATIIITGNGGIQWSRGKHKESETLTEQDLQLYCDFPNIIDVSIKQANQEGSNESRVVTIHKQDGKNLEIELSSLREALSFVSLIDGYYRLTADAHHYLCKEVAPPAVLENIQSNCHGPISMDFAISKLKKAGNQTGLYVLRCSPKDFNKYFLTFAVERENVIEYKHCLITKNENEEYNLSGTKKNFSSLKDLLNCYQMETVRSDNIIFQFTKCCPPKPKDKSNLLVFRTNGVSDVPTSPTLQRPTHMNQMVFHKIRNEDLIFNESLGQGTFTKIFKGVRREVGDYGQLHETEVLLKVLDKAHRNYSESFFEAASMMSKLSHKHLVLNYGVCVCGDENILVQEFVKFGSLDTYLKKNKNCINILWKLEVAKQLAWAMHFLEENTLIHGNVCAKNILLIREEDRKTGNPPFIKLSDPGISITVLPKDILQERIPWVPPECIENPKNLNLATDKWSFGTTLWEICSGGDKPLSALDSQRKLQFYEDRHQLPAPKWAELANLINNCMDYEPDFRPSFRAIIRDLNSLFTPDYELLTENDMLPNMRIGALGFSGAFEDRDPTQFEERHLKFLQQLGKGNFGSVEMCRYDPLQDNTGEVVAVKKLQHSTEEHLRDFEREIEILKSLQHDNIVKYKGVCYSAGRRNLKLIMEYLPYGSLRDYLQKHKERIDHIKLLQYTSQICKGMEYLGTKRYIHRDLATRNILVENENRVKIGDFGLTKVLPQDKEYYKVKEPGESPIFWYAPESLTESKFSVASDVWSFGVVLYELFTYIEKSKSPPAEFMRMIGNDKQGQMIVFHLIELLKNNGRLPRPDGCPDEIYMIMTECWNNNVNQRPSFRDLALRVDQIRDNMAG

`O=C(Nc1cccc(NC(=O)c2cccs2)c1)c1ccc([N+](=O)[O-])o1`: the IC50 (as a rule, the point on the concentration scale where inhibition reaches its midpoint) is 4.5 µM (Ba/F3, irf1 reporter) and 3.31 µM (HEL, irf1 reporter). Taken in the same sequence, the figures for `CC(C)(C)/C(O)=C/c1nc2cc(Cl)ccc2oc1=O` were 4.13 µM and 12.6 µM. Turning to `Cc1ccc(O)c(NC(=O)COc2cccc(C)c2C)c1`, the IC50 (JAK2V617F) was > 40 µM (inactive). Turning to `CNC(=O)c1nnsc1S(=O)c1ccc(Cl)cc1` (configuration not stated), the concentration for half-maximal inhibition (IC50) reads like this: (Ba/F3, irf1 reporter) 0.199 µM; (HEL, irf1 reporter) 12.1 µM. For the compound `COc1cc2ncnc(Nc3cccc(Cl)c3)c2cc1OC`, the IC50 was > 40 µM (inactive) (HEL, irf1 reporter) and > 40 µM (inactive) (JAK2V617F). `c1ccc2c(c1)CSc1sccc1C2=C1CCNCC1`: the IC50 is 5.89 µM (Ba/F3, irf1 reporter) and > 40 µM (inactive) (HEL, irf1 reporter).

`Cc1ccc(O)c(NC(=O)COc2ccc(Br)cc2)c1`: the IC50 (JAK2V617F) was 0.0327 µM. Take `COc1ccc(C2=Nn3c(nnc3C3CCCCC3)SC2)cc1OC`: the IC50 is 8.93 µM (Ba/F3, irf1 reporter) and 13.3 µM (HEL, irf1 reporter). The matching figures for `Cc1cccc(NC(=O)c2ccc([N+](=O)[O-])o2)c1`: 6.3 µM and 10.5 µM. As for `COc1cc2ncnc(Nc3ccc(OC(F)(F)F)cc3)c2cc1OC`, the IC50 (HEL, irf1 reporter) was 3.77 µM and the IC50 (JAK2V617F) is > 40 µM (inactive).

With `COc1ccc(OC)c(NS(=O)(=O)c2ccc(SC)cc2)c1`, the IC50 is 22.9 µM (Ba/F3, irf1 reporter) and > 40 µM (inactive) (HEL, irf1 reporter). Taken in the same sequence, the figures for `CC(C)(C)c1cc(NC(=O)CCl)n(-c2ccccc2)n1` were 8.46 µM and 9.96 µM. As for `Cc1[nH]c(=O)c(C(=O)C=Cc2ccc(C(C)C)cc2)c2c1CCCC2`, the IC50 (Ba/F3, irf1 reporter) is 0.84 µM; the IC50 (HEL, irf1 reporter) was 6.33 µM; the IC50 (JAK2V617F) was 2.29 µM.

In the case of `Cc1cc(SCC(=O)N/N=C/c2ccc(O)c(O)c2)c(C)cc1Br`, the IC50 was 2.02 µM (Ba/F3, irf1 reporter) and > 40 µM (inactive) (HEL, irf1 reporter). Take `COc1ccc(C)cc1NC(=O)Nc1ccc(Br)cn1`: the IC50 was > 40 µM (inactive) (HEL, irf1 reporter) and > 40 µM (inactive) (JAK2V617F).

For the compound `N#Cc1ccccc1NC(=O)COc1ccc2c(c1)OCO2`, the IC50 reads like this: (HEL, irf1 reporter) > 40 µM (inactive); (JAK2V617F) > 40 µM (inactive). `O=C(OCn1ncc(Cl)c(Cl)c1=O)c1ccc(F)cc1`: the IC50 runs as follows: (Ba/F3, irf1 reporter) 1.94 µM; (HEL, irf1 reporter) 8.04 µM. The matching figures for `N#C/C(=C\c1ccc(O)c(O)c1)C(=O)NCCCc1ccccc1`: 6.03 µM and 16.1 µM. The matching figures for `O=C(CCl)NCc1cc(-c2ccc(Cl)cc2)no1`: 5.56 µM and 7.68 µM. Regarding `O=C(COc1ccccc1)Nc1ncccn1`, the IC50 by setting is: (HEL, irf1 reporter) > 40 µM (inactive); (JAK2V617F) > 40 µM (inactive). Turning to `O=C(CCl)N(C/C=C/c1ccccc1)c1ccc2c(c1)OCCO2`, the IC50 by setting is: (Ba/F3, irf1 reporter) 0.499 µM; (HEL, irf1 reporter) 12 µM. As to `O=C(CCl)N=c1sccn1Cc1cccc2ccccc12`, the IC50 reads like this: (Ba/F3, irf1 reporter) 7.24 µM; (HEL, irf1 reporter) 0.202 µM. The matching figures for `Cc1ccc(C)c(Sc2ccc(NC(=O)CCl)cc2)c1`: 2.19 µM and 18 µM. Taken in the same sequence, the figures for `CCCn1c(CC)nc([N+](=O)[O-])c1S(=O)(=O)c1ccccc1` were 4.37 µM and 4.36 µM.

`CCOc1ccc(Nc2nc(N)nc(CCl)n2)cc1`: the IC50 was 11.2 µM (Ba/F3, irf1 reporter) and 0.452 µM (HEL, irf1 reporter).

Take `Oc1ccc(/C=N/N2CCN(C3c4ccccc4-c4ccccc43)CC2)cc1O`: the IC50 is, setting by setting: (Ba/F3, irf1 reporter) 2.47 µM; (HEL, irf1 reporter) 5.15 µM. Take `Cc1cccc(OCC(=O)Nc2ccc(C)c(C)c2)c1`: under “JAK2V617F”, the IC50 is > 40 µM (inactive). Regarding `CC(C)c1cc(C=C(C#N)C(=O)NCCCc2ccccc2)cc(C(C)C)c1O`, the IC50 reads like this: (Ba/F3, irf1 reporter) 0.54 µM; (HEL, irf1 reporter) 1.15 µM; (JAK2V617F) 3.97 µM. With `COc1ccc(OCC(=O)Nc2cc(C)ccc2O)cc1`, under “JAK2V617F”, the IC50 is 3.4 µM. On to `Cc1nc2c(=O)n(C)c(=O)n(C)c2nc1Cl`, for which the IC50 (Ba/F3, irf1 reporter) was 1.97 µM and the IC50 (HEL, irf1 reporter) is 15.7 µM. In the case of `Cc1cc(C)cc(NC(=O)COc2cccc(C)c2)c1`, the IC50 (JAK2V617F) was > 40 µM (inactive). With `Cc1nnc(NC(=O)COc2ccccc2)s1`, the IC50 reads like this: (HEL, irf1 reporter) > 40 µM (inactive); (JAK2V617F) > 40 µM (inactive). Consider `O=C(NC1C=CS(=O)(=O)C1)c1sc2ccccc2c1Cl` (configuration not stated), for which the IC50 is 8.98 µM (Ba/F3, irf1 reporter) and > 40 µM (inactive) (HEL, irf1 reporter). Take `COc1ccc(-c2cc(-c3cc(C)ccc3O)[nH]n2)cc1`: the IC50 by setting is: (Ba/F3, irf1 reporter) 7.06 µM; (HEL, irf1 reporter) 1.82 µM. As to `Cc1ccc(C=CC(=O)c2c3c(c(C)[nH]c2=O)CCCC3)cc1`, the IC50 is 6.04 µM (Ba/F3, irf1 reporter); 23.9 µM (HEL, irf1 reporter); 3.38 µM (JAK2V617F). Regarding `c1ccc(CCNc2nc(-c3ccccn3)nc3ccccc23)cc1`, the IC50 by setting is: (Ba/F3, irf1 reporter) 5.49 µM; (HEL, irf1 reporter) 2.88 µM.

On to `CCN1C/C(=C/c2ccc(OC)c(O)c2)C(=O)/C(=C/c2ccc(OC)c(O)c2)C1`, for which the IC50 reads like this: (Ba/F3, irf1 reporter) 2.36 µM; (HEL, irf1 reporter) 2.75 µM.
